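A five-concentration, 48-hour dose response in 96-well plates underlies each endpoint, interpolated linearly between surrounding concentrations. GI50 marks 50% less growth.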 Active and inactive are the calls of the source. Cut-off read from the data, not from the text of the source: active = GI50 up to about 1.1 µM and inactive = higher.
Key:
Experiment in all cases: DTP human tumour cell line panel, 48 h
786-0 = tested on: 786-0
A498 = tested on: A498
A549 = tested on: A549
CAKI-1 = tested on: CAKI-1
DU-145 = tested on: DU-145
EKVX = tested on: EKVX
HCT-15 = tested on: HCT-15
HOP-62 = tested on: HOP-62
IGROV-1 = tested on: IGROV-1
Malme-3M = tested on: Malme-3M
NCI-H226 = tested on: NCI-H226
NCI-H23 = tested on: NCI-H23
NCI-H522 = tested on: NCI-H522
OVCAR-3 = tested on: OVCAR-3
RPMI-8226 = tested on: RPMI-8226
SK-MEL-2 = tested on: SK-MEL-2
SK-MEL-5 = tested on: SK-MEL-5
SNB-19 = tested on: SNB-19
SNB-75 = tested on: SNB-75
UO-31 = tested on: UO-31

Structure (SMILES)	GI50 (786-0)	GI50 (A498)	GI50 (A549)	GI50 (CAKI-1)	GI50 (DU-145)	GI50 (EKVX)	GI50 (HCT-15) [µM]	GI50 (HOP-62)	GI50 (IGROV-1)	GI50 (Malme-3M)	GI50 (NCI-H226)	GI50 (NCI-H23)	GI50 (NCI-H522)	GI50 (OVCAR-3)	GI50 (RPMI-8226)	GI50 (SK-MEL-2)	GI50 (SK-MEL-5)	GI50 (SNB-19)	GI50 (SNB-75)	GI50 (UO-31)
CNC(=O)OC(COC)CN1CCN(c2ccccc2C)CC1 (stereo not given)	> 10 µM (inactive)	> 10 µM (inactive)	> 10 µM (inactive)	> 10 µM (inactive)	> 10 µM (inactive)	> 10 µM (inactive)	> 10	> 10 µM (inactive)	> 10 µM (inactive)	> 10 µM (inactive)	> 10 µM (inactive)	> 10 µM (inactive)	> 10 µM (inactive)	> 10 µM (inactive)	> 10 µM (inactive)	> 10 µM (inactive)	> 10 µM (inactive)	> 10 µM (inactive)	> 10 µM (inactive)	> 10 µM (inactive)
COC(=O)C1=C(O)C(C(=O)OC)C2CC(=O)CC1C2(C)C (stereo not given)	> 100 µM (inactive)	> 100 µM (inactive)	> 100 µM (inactive)	> 100 µM (inactive)	> 100 µM (inactive)	> 100 µM (inactive)	> 100	> 100 µM (inactive)	> 100 µM (inactive)	> 100 µM (inactive)	> 100 µM (inactive)	> 100 µM (inactive)	> 100 µM (inactive)	> 100 µM (inactive)	> 100 µM (inactive)	> 100 µM (inactive)	> 100 µM (inactive)	> 100 µM (inactive)	88.9 µM (inactive)	> 100 µM (inactive)
CC(C)C[P+](c1ccccc1)(c1ccccc1)c1ccccc1	41.5 µM (inactive)	32.1 µM (inactive)	6.22 µM (inactive)	10.5 µM (inactive)	6.95 µM (inactive)	3.1 µM (inactive)	64.3	13.7 µM (inactive)	13.3 µM (inactive)	5.7 µM (inactive)	8.79 µM (inactive)	7.4 µM (inactive)	3.97 µM (inactive)	2.31 µM (inactive)	< 0.01 µM (active)	4.36 µM (inactive)	2.86 µM (inactive)	9.35 µM (inactive)	13.1 µM (inactive)	45.5 µM (inactive)
CCC1(C(=O)OC(C)(C)C)OC12C(C)CCCC2C (stereo not given)	40.6 µM (inactive)	57.9 µM (inactive)	34.8 µM (inactive)	33.7 µM (inactive)	> 100 µM (inactive)	63.7 µM (inactive)	36	48.9 µM (inactive)	> 100 µM (inactive)	56.2 µM (inactive)	45 µM (inactive)	83.6 µM (inactive)	24.5 µM (inactive)	34.3 µM (inactive)	21.5 µM (inactive)	44.8 µM (inactive)	33.3 µM (inactive)	48.9 µM (inactive)	32.9 µM (inactive)	48.5 µM (inactive)
CCOC(=O)C1=CC(C)(C(=O)OCC)Nc2c(nc(OC)[nH]c2=O)N1 (stereo not given)	> 10 µM (inactive)	> 10 µM (inactive)	> 10 µM (inactive)	> 10 µM (inactive)	> 10 µM (inactive)	> 10 µM (inactive)	> 10	> 10 µM (inactive)	> 10 µM (inactive)	> 10 µM (inactive)	> 10 µM (inactive)	> 10 µM (inactive)	> 10 µM (inactive)	> 10 µM (inactive)	> 10 µM (inactive)	> 10 µM (inactive)	> 10 µM (inactive)	> 10 µM (inactive)	> 10 µM (inactive)	> 10 µM (inactive)
O=S(=O)(O)c1cc(/N=[N+](\[O-])c2cc(S(=O)(=O)O)c3ccccc3c2)cc2ccccc12	> 100 µM (inactive)	> 100 µM (inactive)	> 100 µM (inactive)	23.1 µM (inactive)	19.5 µM (inactive)	39.4 µM (inactive)	> 100	48 µM (inactive)	33.9 µM (inactive)	45.5 µM (inactive)	> 100 µM (inactive)	25.5 µM (inactive)	26.2 µM (inactive)	12.4 µM (inactive)	28.1 µM (inactive)	24.7 µM (inactive)	17.9 µM (inactive)	46.7 µM (inactive)	16.3 µM (inactive)	20.9 µM (inactive)
CC(=O)N/C=C/c1cc(O)ccc1O	33.2 µM (inactive)	51.3 µM (inactive)	> 61.8 µM (inactive)	16.6 µM (inactive)	41.3 µM (inactive)	45.2 µM (inactive)	40.8	> 41 µM (inactive)	> 55.1 µM (inactive)	> 44.6 µM (inactive)	46.3 µM (inactive)	34.4 µM (inactive)	3.67 µM (inactive)	16 µM (inactive)	40.3 µM (inactive)	34.9 µM (inactive)	36.5 µM (inactive)	> 52.7 µM (inactive)	48.3 µM (inactive)	23.4 µM (inactive)
